Test results as given in the supplement of paper PMC4862054.

system: MDA-MB-436; assay: normalised response (% of control), CellTiter-Glo; higher = more viable cells (100 = DMSO, 0 = benzethonium chloride kill control); settings: incubation time: 72 h
How it was run: (§1)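 In 384-well plates holding compound at 5 concentrations in 10-fold steps over a 10,000-fold range specific to each compound, breast cancer cell lines were seeded as 20 µl suspension and incubated 72 h. CellTox Green fluorescence was measured at 485/520 nm, after which CellTiter-Glo luminescence was measured following 10 min at room temperature. Plate signals were normalised to 0.1 % DMSO (100) and a positive kill control (0), and each value is the normalised signal at a single concentration.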

Structure (SMILES) | normalised response
CC(C)N(CCCNC(=O)Nc1ccc(C(C)(C)C)cc1)C[C@H]1O[C@@H](n2cc(Br)c3c(N)ncnc32)[C@H](O)[C@@H]1O [SGC0946] (1000 nM) | 93.4%
CNC(=O)c1cc(Oc2ccc(NC(=O)Nc3ccc(Cl)c(C(F)(F)F)c3)cc2)ccn1 [Sorafenib] (0.1 nM) | 102%
CCN(CC)CCNC(=O)c1c(C)[nH]c(/C=C2\C(=O)Nc3ccc(F)cc32)c1C [Sunitinib] (0.1 nM) | 94.9%
CCN(CC)CCNC(=O)c1c(C)[nH]c(/C=C2\C(=O)Nc3ccc(F)cc32)c1C [Sunitinib] (1 nM) | 104%
CC[C@@]1(O)C(=O)OCc2c1cc1n(c2=O)Cc2cc3c(CN(C)C)c(O)ccc3nc2-1 [Topotecan] (1 nM) | 99.3%

system: CAL-148; assay: as above; settings: incubation time: 72 h
How it was run: as §1

Structure (SMILES) | normalised response
Cc1c(Cn2c(C)nc3c(C(=O)O)cc(N4CCOCC4)cc32)cccc1C(F)(F)F (1000 nM) | 101%
CCCCC/C=C/C=C1/C(=O)C=C[C@@H]1C/C=C\CCCC(=O)O [15D-PGJ2] (80 nM) | 102%
CS(=O)(=O)N1CCN(Cc2cc3nc(-c4cccc5[nH]ncc45)nc(N4CCOCC4)c3s2)CC1 [Pictilisib] (1000 nM) | 66.3%
c1cc(CN2CCCNCCNCCCNCC2)ccc1CN1CCCNCCNCCCNCC1 [Plerixafor] (1000 nM) | 90.4%
CC(C)N(CCCNC(=O)Nc1ccc(C(C)(C)C)cc1)C[C@H]1O[C@@H](n2cc(Br)c3c(N)ncnc32)[C@H](O)[C@@H]1O [SGC0946] (1 nM) | 99.5%
CC(C)N(CCCNC(=O)Nc1ccc(C(C)(C)C)cc1)C[C@H]1O[C@@H](n2cc(Br)c3c(N)ncnc32)[C@H](O)[C@@H]1O [SGC0946] (10 nM) | 91.2%
CC(C)N(CCCNC(=O)Nc1ccc(C(C)(C)C)cc1)C[C@H]1O[C@@H](n2cc(Br)c3c(N)ncnc32)[C@H](O)[C@@H]1O [SGC0946] (1000 nM) | 91.3%
CNC(=O)c1cc(Oc2ccc(NC(=O)Nc3ccc(Cl)c(C(F)(F)F)c3)cc2)ccn1 [Sorafenib] (0.1 nM) | 106%
CCN(CC)CCNC(=O)c1c(C)[nH]c(/C=C2\C(=O)Nc3ccc(F)cc32)c1C [Sunitinib] (0.1 nM) | 108%
CCN(CC)CCNC(=O)c1c(C)[nH]c(/C=C2\C(=O)Nc3ccc(F)cc32)c1C [Sunitinib] (1 nM) | 103%
CC[C@@]1(O)C(=O)OCc2c1cc1n(c2=O)Cc2cc3c(CN(C)C)c(O)ccc3nc2-1 [Topotecan] (1 nM) | 97.6%

system: MDA-MB-468; assay: as above; settings: incubation time: 72 h
How it was run: as §1

Structure (SMILES) | normalised response
Cc1c(Cn2c(C)nc3c(C(=O)O)cc(N4CCOCC4)cc32)cccc1C(F)(F)F (1000 nM) | 80.9%
CCCCC/C=C/C=C1/C(=O)C=C[C@@H]1C/C=C\CCCC(=O)O [15D-PGJ2] (80 nM) | 99.2%
CS(=O)(=O)N1CCN(Cc2cc3nc(-c4cccc5[nH]ncc45)nc(N4CCOCC4)c3s2)CC1 [Pictilisib] (1000 nM) | 72.9%
c1cc(CN2CCCNCCNCCCNCC2)ccc1CN1CCCNCCNCCCNCC1 [Plerixafor] (1000 nM) | 98.1%
CC(C)N(CCCNC(=O)Nc1ccc(C(C)(C)C)cc1)C[C@H]1O[C@@H](n2cc(Br)c3c(N)ncnc32)[C@H](O)[C@@H]1O [SGC0946] (1 nM) | 97.7%
CC(C)N(CCCNC(=O)Nc1ccc(C(C)(C)C)cc1)C[C@H]1O[C@@H](n2cc(Br)c3c(N)ncnc32)[C@H](O)[C@@H]1O [SGC0946] (10 nM) | 86.9%
CC(C)N(CCCNC(=O)Nc1ccc(C(C)(C)C)cc1)C[C@H]1O[C@@H](n2cc(Br)c3c(N)ncnc32)[C@H](O)[C@@H]1O [SGC0946] (1000 nM) | 86.5%
CNC(=O)c1cc(Oc2ccc(NC(=O)Nc3ccc(Cl)c(C(F)(F)F)c3)cc2)ccn1 [Sorafenib] (0.1 nM) | 101%
CCN(CC)CCNC(=O)c1c(C)[nH]c(/C=C2\C(=O)Nc3ccc(F)cc32)c1C [Sunitinib] (0.1 nM) | 103%
CCN(CC)CCNC(=O)c1c(C)[nH]c(/C=C2\C(=O)Nc3ccc(F)cc32)c1C [Sunitinib] (1 nM) | 106%
CC[C@@]1(O)C(=O)OCc2c1cc1n(c2=O)Cc2cc3c(CN(C)C)c(O)ccc3nc2-1 [Topotecan] (1 nM) | 94.7%

system: MFM-223; assay: as above; settings: incubation time: 72 h
How it was run: as §1

Structure (SMILES) | normalised response
Cc1c(Cn2c(C)nc3c(C(=O)O)cc(N4CCOCC4)cc32)cccc1C(F)(F)F (1000 nM) | 104%
CCCCC/C=C/C=C1/C(=O)C=C[C@@H]1C/C=C\CCCC(=O)O [15D-PGJ2] (80 nM) | 99.9%
CS(=O)(=O)N1CCN(Cc2cc3nc(-c4cccc5[nH]ncc45)nc(N4CCOCC4)c3s2)CC1 [Pictilisib] (1000 nM) | 66.5%
c1cc(CN2CCCNCCNCCCNCC2)ccc1CN1CCCNCCNCCCNCC1 [Plerixafor] (1000 nM) | 87.3%
CC(C)N(CCCNC(=O)Nc1ccc(C(C)(C)C)cc1)C[C@H]1O[C@@H](n2cc(Br)c3c(N)ncnc32)[C@H](O)[C@@H]1O [SGC0946] (1 nM) | 91.3%
CC(C)N(CCCNC(=O)Nc1ccc(C(C)(C)C)cc1)C[C@H]1O[C@@H](n2cc(Br)c3c(N)ncnc32)[C@H](O)[C@@H]1O [SGC0946] (10 nM) | 96.6%
CC(C)N(CCCNC(=O)Nc1ccc(C(C)(C)C)cc1)C[C@H]1O[C@@H](n2cc(Br)c3c(N)ncnc32)[C@H](O)[C@@H]1O [SGC0946] (1000 nM) | 94%
CNC(=O)c1cc(Oc2ccc(NC(=O)Nc3ccc(Cl)c(C(F)(F)F)c3)cc2)ccn1 [Sorafenib] (0.1 nM) | 98.8%
CCN(CC)CCNC(=O)c1c(C)[nH]c(/C=C2\C(=O)Nc3ccc(F)cc32)c1C [Sunitinib] (0.1 nM) | 103%
CCN(CC)CCNC(=O)c1c(C)[nH]c(/C=C2\C(=O)Nc3ccc(F)cc32)c1C [Sunitinib] (1 nM) | 105%
CC[C@@]1(O)C(=O)OCc2c1cc1n(c2=O)Cc2cc3c(CN(C)C)c(O)ccc3nc2-1 [Topotecan] (1 nM) | 93.7%

system: CAL-120; assay: as above; settings: incubation time: 72 h
How it was run: as §1

Structure (SMILES) | normalised response
Cc1c(Cn2c(C)nc3c(C(=O)O)cc(N4CCOCC4)cc32)cccc1C(F)(F)F (1000 nM) | 99.8%
CCCCC/C=C/C=C1/C(=O)C=C[C@@H]1C/C=C\CCCC(=O)O [15D-PGJ2] (80 nM) | 103%
CS(=O)(=O)N1CCN(Cc2cc3nc(-c4cccc5[nH]ncc45)nc(N4CCOCC4)c3s2)CC1 [Pictilisib] (1000 nM) | 64.9%
c1cc(CN2CCCNCCNCCCNCC2)ccc1CN1CCCNCCNCCCNCC1 [Plerixafor] (1000 nM) | 111%
CC(C)N(CCCNC(=O)Nc1ccc(C(C)(C)C)cc1)C[C@H]1O[C@@H](n2cc(Br)c3c(N)ncnc32)[C@H](O)[C@@H]1O [SGC0946] (1 nM) | 94.9%
CC(C)N(CCCNC(=O)Nc1ccc(C(C)(C)C)cc1)C[C@H]1O[C@@H](n2cc(Br)c3c(N)ncnc32)[C@H](O)[C@@H]1O [SGC0946] (10 nM) | 92.9%
CC(C)N(CCCNC(=O)Nc1ccc(C(C)(C)C)cc1)C[C@H]1O[C@@H](n2cc(Br)c3c(N)ncnc32)[C@H](O)[C@@H]1O [SGC0946] (1000 nM) | 100%
CNC(=O)c1cc(Oc2ccc(NC(=O)Nc3ccc(Cl)c(C(F)(F)F)c3)cc2)ccn1 [Sorafenib] (0.1 nM) | 100%
CCN(CC)CCNC(=O)c1c(C)[nH]c(/C=C2\C(=O)Nc3ccc(F)cc32)c1C [Sunitinib] (0.1 nM) | 105%
CCN(CC)CCNC(=O)c1c(C)[nH]c(/C=C2\C(=O)Nc3ccc(F)cc32)c1C [Sunitinib] (1 nM) | 107%
CC[C@@]1(O)C(=O)OCc2c1cc1n(c2=O)Cc2cc3c(CN(C)C)c(O)ccc3nc2-1 [Topotecan] (1 nM) | 92.5%

system: DU-4475; assay: as above; settings: incubation time: 72 h
How it was run: as §1

Structure (SMILES) | normalised response
Cc1c(Cn2c(C)nc3c(C(=O)O)cc(N4CCOCC4)cc32)cccc1C(F)(F)F (1000 nM) | 95.1%
CCCCC/C=C/C=C1/C(=O)C=C[C@@H]1C/C=C\CCCC(=O)O [15D-PGJ2] (80 nM) | 102%
CS(=O)(=O)N1CCN(Cc2cc3nc(-c4cccc5[nH]ncc45)nc(N4CCOCC4)c3s2)CC1 [Pictilisib] (1000 nM) | 86.5%
c1cc(CN2CCCNCCNCCCNCC2)ccc1CN1CCCNCCNCCCNCC1 [Plerixafor] (1000 nM) | 92.1%
CC(C)N(CCCNC(=O)Nc1ccc(C(C)(C)C)cc1)C[C@H]1O[C@@H](n2cc(Br)c3c(N)ncnc32)[C@H](O)[C@@H]1O [SGC0946] (1 nM) | 98.5%
CC(C)N(CCCNC(=O)Nc1ccc(C(C)(C)C)cc1)C[C@H]1O[C@@H](n2cc(Br)c3c(N)ncnc32)[C@H](O)[C@@H]1O [SGC0946] (10 nM) | 93.6%
CC(C)N(CCCNC(=O)Nc1ccc(C(C)(C)C)cc1)C[C@H]1O[C@@H](n2cc(Br)c3c(N)ncnc32)[C@H](O)[C@@H]1O [SGC0946] (1000 nM) | 98.4%
CNC(=O)c1cc(Oc2ccc(NC(=O)Nc3ccc(Cl)c(C(F)(F)F)c3)cc2)ccn1 [Sorafenib] (0.1 nM) | 101%
CCN(CC)CCNC(=O)c1c(C)[nH]c(/C=C2\C(=O)Nc3ccc(F)cc32)c1C [Sunitinib] (0.1 nM) | 96.1%
CCN(CC)CCNC(=O)c1c(C)[nH]c(/C=C2\C(=O)Nc3ccc(F)cc32)c1C [Sunitinib] (1 nM) | 99.4%
CC[C@@]1(O)C(=O)OCc2c1cc1n(c2=O)Cc2cc3c(CN(C)C)c(O)ccc3nc2-1 [Topotecan] (1 nM) | 95.3%

system: MDA-MB-231; assay: as above; settings: incubation time: 72 h
How it was run: as §1

Structure (SMILES) | normalised response
Cc1c(Cn2c(C)nc3c(C(=O)O)cc(N4CCOCC4)cc32)cccc1C(F)(F)F (1000 nM) | 100%
CCCCC/C=C/C=C1/C(=O)C=C[C@@H]1C/C=C\CCCC(=O)O [15D-PGJ2] (80 nM) | 101%
CS(=O)(=O)N1CCN(Cc2cc3nc(-c4cccc5[nH]ncc45)nc(N4CCOCC4)c3s2)CC1 [Pictilisib] (1000 nM) | 70.5%
c1cc(CN2CCCNCCNCCCNCC2)ccc1CN1CCCNCCNCCCNCC1 [Plerixafor] (1000 nM) | 96.9%
CC(C)N(CCCNC(=O)Nc1ccc(C(C)(C)C)cc1)C[C@H]1O[C@@H](n2cc(Br)c3c(N)ncnc32)[C@H](O)[C@@H]1O [SGC0946] (1 nM) | 93.2%
CC(C)N(CCCNC(=O)Nc1ccc(C(C)(C)C)cc1)C[C@H]1O[C@@H](n2cc(Br)c3c(N)ncnc32)[C@H](O)[C@@H]1O [SGC0946] (10 nM) | 97.5%
CC(C)N(CCCNC(=O)Nc1ccc(C(C)(C)C)cc1)C[C@H]1O[C@@H](n2cc(Br)c3c(N)ncnc32)[C@H](O)[C@@H]1O [SGC0946] (1000 nM) | 92.1%
CNC(=O)c1cc(Oc2ccc(NC(=O)Nc3ccc(Cl)c(C(F)(F)F)c3)cc2)ccn1 [Sorafenib] (0.1 nM) | 107%
CCN(CC)CCNC(=O)c1c(C)[nH]c(/C=C2\C(=O)Nc3ccc(F)cc32)c1C [Sunitinib] (0.1 nM) | 106%
CCN(CC)CCNC(=O)c1c(C)[nH]c(/C=C2\C(=O)Nc3ccc(F)cc32)c1C [Sunitinib] (1 nM) | 101%
CC[C@@]1(O)C(=O)OCc2c1cc1n(c2=O)Cc2cc3c(CN(C)C)c(O)ccc3nc2-1 [Topotecan] (1 nM) | 97.9%

system: CAL-85-1; assay: as above; settings: incubation time: 72 h
How it was run: as §1

Structure (SMILES) | normalised response
Cc1c(Cn2c(C)nc3c(C(=O)O)cc(N4CCOCC4)cc32)cccc1C(F)(F)F (1000 nM) | 98.1%
CCCCC/C=C/C=C1/C(=O)C=C[C@@H]1C/C=C\CCCC(=O)O [15D-PGJ2] (80 nM) | 96.2%
